From ChEMBL document CHEMBL3046355, “Design, synthesis, and herbicidal activities of novel 2-cyanoacrylates containing isoxazole moieties” (2010)

What was measured:
Assay type in all cases: functional
Amaranthus retroflexus [1] = experiment: Herbicidal activity against Amaranthus retroflexus assessed as inhibition of weed growth at 375 g/ha using postemergence treatment protocol; settings: post-emergence
Amaranthus retroflexus [2] = experiment: Herbicidal activity against Amaranthus retroflexus assessed as inhibition of weed growth at 750 g/ha using postemergence treatment protocol; settings: post-emergence
Digitaria sanguinalis [3] = experiment: Herbicidal activity against Digitaria sanguinalis (hairy crabgrass) assessed as inhibition of weed growth at 1.5 kg/ha using post-emergence treatment protocol
Amaranthus retroflexus [4] = experiment: Herbicidal activity against Amaranthus retroflexus assessed as inhibition of weed growth at 1.5 kg/ha using postemergence treatment protocol; settings: post-emergence
Brassica napus [5] = experiment: Herbicidal activity against Brassica napus (oilseed rape) assessed as inhibition of weed growth at 375 g/ha using postemergence treatment protocol; settings: post-emergence
Brassica napus [6] = experiment: Herbicidal activity against Brassica napus (oilseed rape) assessed as inhibition of weed growth at 750 g/ha using postemergence treatment protocol; settings: post-emergence
Brassica napus [7] = experiment: Herbicidal activity against Brassica napus (oilseed rape) assessed as inhibition of weed growth at 1.5 kg/ha using preemergence treatment protocol; settings: pre-emergence
Digitaria sanguinalis [8] = experiment: Herbicidal activity against Digitaria sanguinalis (hairy crabgrass) assessed as inhibition of weed growth at 1.5 kg/ha using pre-emergence treatment protocol
Echinochloa crus-galli [9] = experiment: Herbicidal activity against Echinochloa crus-galli (barnyard grass) assessed as inhibition of weed growth at 1.5 kg/ha using preemergence treatment protocol; settings: pre-emergence
Amaranthus retroflexus [10] = experiment: Herbicidal activity against Amaranthus retroflexus assessed as inhibition of weed growth at 1.5 kg/ha using preemergence treatment protocol; settings: pre-emergence
Brassica napus [11] = experiment: Herbicidal activity against Brassica napus (oilseed rape) assessed as inhibition of weed growth at 1.5 kg/ha using postemergence treatment protocol; settings: post-emergence
Echinochloa crus-galli [12] = experiment: Herbicidal activity against Echinochloa crus-galli (barnyard grass) assessed as inhibition of weed growth at 1.5 kg/ha using postemergence treatment protocol; settings: post-emergence
Amaranthus retroflexus [13] = experiment: Herbicidal activity against Amaranthus retroflexus assessed as inhibition of weed growth at 75 g/ha using postemergence treatment protocol; settings: post-emergence
Amaranthus retroflexus [14] = experiment: Herbicidal activity against Amaranthus retroflexus assessed as inhibition of weed growth at 150 g/ha using postemergence treatment protocol; settings: post-emergence
Brassica napus [15] = experiment: Herbicidal activity against Brassica napus (oilseed rape) assessed as inhibition of weed growth at 75 g/ha using postemergence treatment protocol; settings: post-emergence
Brassica napus [16] = experiment: Herbicidal activity against Brassica napus (oilseed rape) assessed as inhibition of weed growth at 150 g/ha using postemergence treatment protocol; settings: post-emergence

Row | SMILES | inhibition at 375 g/ha (Amaranthus retroflexus [1]) [%] | inhibition at 750 g/ha (Amaranthus retroflexus [2]) [%] | inhibition at 1500 g/ha (Digitaria sanguinalis [3]) [%] | inhibition at 1500 g/ha (Amaranthus retroflexus [4]) [%] | inhibition at 375 g/ha (Brassica napus [5]) [%] | inhibition at 750 g/ha (Brassica napus [6]) [%] | inhibition at 1500 g/ha (Brassica napus [7]) [%] | inhibition at 1500 g/ha (Digitaria sanguinalis [8]) [%] | inhibition at 1500 g/ha (Echinochloa crus-galli [9]) [%] | inhibition at 1500 g/ha (Amaranthus retroflexus [10]) [%] | inhibition at 1500 g/ha (Brassica napus [11]) [%] | inhibition at 1500 g/ha (Echinochloa crus-galli [12]) [%] | inhibition at 75 g/ha (Amaranthus retroflexus [13]) [%] | inhibition at 150 g/ha (Amaranthus retroflexus [14]) [%] | inhibition at 75 g/ha (Brassica napus [15]) [%] | inhibition at 150 g/ha (Brassica napus [16]) [%]
1 | CCOCCOC(=O)/C(C#N)=C(\NCc1cc(-c2ccc(C(C)(C)C)cc2)no1)C(C)C | 54.3 | 89.1 | 24.7 | 100 | 41.7 | 85.8 | 0 | 0 | 0 | 0 | 100 | 0 | – | – | – | –
2 | CCOCCOC(=O)/C(C#N)=C(\NCc1cc(-c2ccccc2OC)no1)C(C)C | 100 | 100 | 82 | 95.1 | 100 | 100 | 17.4 | 5.5 | 0 | 44.9 | 100 | 56.4 | 17.4 | 23.9 | 17.1 | 27
3 | CCOCCOC(=O)/C(C#N)=C(\NCc1cc(-c2ccc(Cl)cc2)no1)C(C)C | 100 | 100 | 64.1 | 100 | 100 | 100 | 10.6 | 0 | 0 | 68.7 | 100 | 33 | 8.7 | 26.1 | 29.6 | 36.3
4 | CCOCCOC(=O)/C(C#N)=C(\NCc1cc(Br)no1)C(C)C | 100 | 100 | 42.1 | 100 | 100 | 100 | – | 0 | 22.6 | 60 | 100 | 66.5 | 46.5 | 90 | 100 | 100
5 | CCOCCOC(=O)/C(C#N)=C(\NCc1cc(C(C)C)no1)C(C)C | 54.6 | 100 | 48.4 | 100 | 97.7 | 100 | – | 0 | 5 | 100 | 100 | 12.5 | 0 | 0 | 52 | 92.8
6 | CCOCCOC(=O)/C(C#N)=C(\NCc1cc(-c2ccc(OC)cc2)no1)C(C)C | 100 | 100 | 14.3 | 100 | 100 | 100 | 40.9 | 0 | 0 | 45.2 | 100 | 0 | 65.2 | 93.5 | 82.5 | 100
7 | CCOCCOC(=O)/C(C#N)=C(\NCc1cc(C(C)C)no1)SC | 0 | 37.6 | 48.4 | 94 | 52.3 | 76.9 | – | 0 | 0 | 25 | 100 | 32.6 | – | – | – | –
8 | CCOCCOC(=O)/C(C#N)=C(\NCc1cc(-c2ccccc2OC)no1)SC | 0 | 16 | 52.3 | 90.6 | 15.8 | 43.8 | 19 | 17.3 | 0 | 47.8 | 100 | 52 | – | – | – | –
9 | CCOCCOC(=O)/C(C#N)=C(\NCc1cc(-c2ccc(OC)cc2)no1)SC | 34.8 | 87 | 32.5 | 100 | 57.5 | 94.6 | 10 | 0 | 0 | 0 | 100 | 0 | – | – | – | –
10 | CCOCCOC(=O)/C(C#N)=C(\NCc1cc(-c2ccccc2Cl)no1)C(C)C | 96 | 98.3 | 24 | 100 | 100 | 100 | – | 0 | 0 | 0 | 100 | 47.2 | 77 | 94.4 | 100 | 100
11 | CCOCCOC(=O)/C(C#N)=C(\NCc1cc(-c2ccc(Cl)cc2)no1)SC | 4 | 22 | 72.7 | 89.9 | 0 | 0 | 28.4 | 14.8 | 0 | 23.1 | 100 | 58.2 | – | – | – | –
12 | CCOCCOC(=O)/C(C#N)=C(\NCc1cc(Br)no1)SC | 0 | 0 | 55.3 | 99.1 | 87 | 93 | – | 0 | 2.4 | 0 | 100 | 36.8 | – | – | – | –
13 | CCOCCOC(=O)/C(C#N)=C(\NCc1cc(-c2ccccc2)no1)SC | 7 | 34 | 55.5 | 100 | 17.8 | 100 | 15.8 | 0 | 0 | 67.7 | 100 | 57 | – | – | – | –
14 | CCOCCOC(=O)/C(C#N)=C(\NCc1cc(-c2ccc(C(C)(C)C)cc2)no1)SC | 28.3 | 45.7 | 55.8 | 100 | 9.8 | 22.2 | 0 | 0 | 0 | 10 | 100 | 0 | – | – | – | –
15 | CCOCCOC(=O)/C(C#N)=C(\NCc1cc(-c2ccc(Cl)cc2Cl)no1)C(C)C | 100 | 100 | 63.3 | 100 | 100 | 100 | 21.3 | 18.1 | 0 | 50.2 | 100 | 56.7 | 10.9 | 19.6 | 11.4 | 21.8
16 | CCOCCOC(=O)/C(C#N)=C(\NCc1cc(-c2ccc(Cl)cc2Cl)no1)SC | 0 | 46 | 64.1 | 89.9 | 0 | 0 | 45 | 15.6 | 0 | 65.8 | 100 | 45.2 | – | – | – | –
17 | CCOCCOC(=O)/C(C#N)=C(\NCc1cc(-c2ccccc2)no1)C(C)C | 100 | 100 | 59.4 | 100 | 100 | 100 | 28.7 | 24.9 | 0 | 88.6 | 100 | 40 | 17.4 | 78.3 | 54.2 | 97.3
